Where two headings read alike, the source gives them in different places. Bounds are passed on as bounds.

Data set [1] deals with mouse colon cancer cell line (CT-26). As to the kind of experiment: MTT cytotoxic assay, CT-26. It counts as cell-based. To be noted: MTT, 48 h exposure, read-out: IC50 CT-26. The procedure: (§1) The in vitro antiproliferative activity of DAA derivatives (1–5, 6a–k, 7a–k) were evaluated by MTT assay against human hepatocarcinoma cell line (SMMC-7721), human breast cancer cell line (MDA-MB-231), human cervical carcinoma cell line (HeLa), mouse colon cancer cell line (CT-26) and human normal hepatocyte cell line (QSG-7701). Nocodazole was co-assayed as the positive control and DMEM culture medium containing 0.1% DMSO was used as negative control. The results of the tested compounds expressed as IC50 values (concentration required to inhibit tumor cell proliferation by 50%) were presented in Table 1.
(§2) The human hepatocarcinoma cell line (SMMC-7721), human breast cancer cell line (MDA-MB-231), human cervical carcinoma cell line (HeLa), mouse colon cancer cell line (CT-26) and human normal hepatocyte cells (QSG-7701) used in this study were all obtained from Keygene Biotech., China. These cell lines were maintained in DMEM medium supplemented with 10% heat-inactivated fetal bovine serum in a humidified atmosphere of 5% CO2 at 37 °C.
(§3) The in vitro cytotoxic activities of the benzimidazole derivatives of dehydroabietic acid were evaluated against tested cell lines via the MTT colorimetric method. Briefly, different tumor cells were grown in DMEM medium supplemented with 10% fetal bovine serum, penicillin (100 U mL^−1), and streptomycin (50 μg mL^−1). Cells were harvested at log phase of growth and seeded in 96-well plates (100 μL per well at a density of 2 × 10^5 cells mL^−1). After 24 h incubation at 37 °C and 5% CO2 to allow cell attachment, cultures were exposed to various concentrations of the isolated compounds for 48 h. Finally, MTT solution (2.5 mg mL^−1 in PBS) was added (40 μL per well). Plates were further incubated for 4 h at 37 °C, and the formazan crystals formed were dissolved by adding 150 μL per well of DMSO. Absorption at 570 nm was measured with an ELISA plate reader. The results were expressed as IC50 values with standard deviations, which was defined as the concentration at which 50% survival of cells was discerned. Nocodazole was co-assayed as positive control.
On the technique in general: Tetrazolium dyes change colour on reduction, which living cells bring about.

The subject of data set [2] is human hepatocarcinoma cell line (SMMC-7721). The data set can be described thus: MTT cytotoxic assay, SMMC-7721. Type of data set: cell-based. The note with it: MTT, 48 h exposure, read-out: IC50 SMMC-7721. The procedure: as §1, §2, §3
In data set [3] the test system is human cervical carcinoma cell line (HeLa). The data set can be described thus: MTT cytotoxic assay, HeLa. It counts as cell-based. To be noted: MTT, 48 h exposure, read-out: IC50 HeLa. The procedure: as §1, §2, §3
For data set [4], the system named is human normal hepatocyte cell line (QSG-7701). As to the kind of experiment: MTT cytotoxic assay, QSG-7701. Type of data set: cell-based. The note with it: QSG7701, 48 h exposure. The procedure:
as §1, §2, §3

Data set [5] deals with human breast cancer cell line (MDA-MB-231). The data set can be described thus: MTT cytotoxic assay, MDA-MB-231. It counts as cell-based. To be noted: MDA-MB-231, MTT, 48 h exposure, read-out: IC50 MDA-MB-231. The procedure: as §1, §2, §3
Data set [6] concerns the target T1, Porcine brain tubulin (Sus scrofa, UniProt P02550+P02554).
T1 construct: purchased Cytoskeleton, Inc. BK004P; host or cells: porcine brain tissue
The data set can be described thus: In vitro tubulin polymerization inhibition assay (OD340). Type of data set: biochemical. To be noted: 10 μM, 37 °C, 1 h, versus blank control. How it is done: The in vitro tubulin polymerization inhibition assay was carried out by using the Tubulin Polymerization Assay Kit (Cytoskeleton, Inc., USA) according to the protocol in the manual. Porcine brain tubulin was incubated with compound 6j at concentrations of 5 and 10 μM. The positive control colchicine and negative control taxol were co-assayed at the concentration of 10 μM, and G-PEM buffer was used as the blank control.
The tubulin polymerization assay was accomplished using a commercial assay kit (cat. #BK004P) purchased from Cytoskeleton, Inc. (Danvers, MA, USA). Tubulin isolated from porcine brain tissue was used in this tubulin polymerization assay kit. Tubulin polymerizations are followed by an increase in optical density at 340 nm (OD340) over a 60 min period at 37 °C due to the light scattered by microtubule polymer. At first, tubulin (4 mg) was disovled in 1 mL of G-PEM buffer containing 80 mM piperazine-N,N′-bis(2-ethanesulfonic acid) sequisodium salt (PIPES, pH 6.9), 2.0 mM MgCl2, 0.5 mM EGTA and 1 mM GTP to prepare tubulin solution. Subsequently, 10 μL of 10 × stock solutions of the tested compounds at different concentrations were added to a prewarmed 96-well plate and incubated at 37 °C for 2 min, then 90 μL of tubulin solution was also added into each well to initiate the reaction. The optical intensity (OD340) of each well was recorded every 60 s for 60 min (Cytation 3 Cell Imaging Multi-Mode Reader, BioTek Instruments, Inc., USA). Colchicine and taxol were co-assayed as the positive control and negative control, respectively. G-PEM buffer was used as the blank control.

T1 sequence (P02554 whole entry): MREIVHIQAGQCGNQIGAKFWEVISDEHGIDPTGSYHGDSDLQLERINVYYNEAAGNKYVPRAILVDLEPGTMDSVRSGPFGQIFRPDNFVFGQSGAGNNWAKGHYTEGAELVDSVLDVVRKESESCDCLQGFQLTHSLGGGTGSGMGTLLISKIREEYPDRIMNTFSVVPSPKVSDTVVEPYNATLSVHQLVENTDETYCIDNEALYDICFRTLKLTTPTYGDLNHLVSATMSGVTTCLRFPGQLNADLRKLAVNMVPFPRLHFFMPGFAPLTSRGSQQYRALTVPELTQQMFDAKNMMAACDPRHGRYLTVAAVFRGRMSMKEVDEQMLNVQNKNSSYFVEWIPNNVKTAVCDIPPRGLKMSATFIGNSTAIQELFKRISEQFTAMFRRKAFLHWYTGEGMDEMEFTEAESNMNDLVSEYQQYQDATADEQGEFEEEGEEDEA
T1 sequence (P02550 whole entry): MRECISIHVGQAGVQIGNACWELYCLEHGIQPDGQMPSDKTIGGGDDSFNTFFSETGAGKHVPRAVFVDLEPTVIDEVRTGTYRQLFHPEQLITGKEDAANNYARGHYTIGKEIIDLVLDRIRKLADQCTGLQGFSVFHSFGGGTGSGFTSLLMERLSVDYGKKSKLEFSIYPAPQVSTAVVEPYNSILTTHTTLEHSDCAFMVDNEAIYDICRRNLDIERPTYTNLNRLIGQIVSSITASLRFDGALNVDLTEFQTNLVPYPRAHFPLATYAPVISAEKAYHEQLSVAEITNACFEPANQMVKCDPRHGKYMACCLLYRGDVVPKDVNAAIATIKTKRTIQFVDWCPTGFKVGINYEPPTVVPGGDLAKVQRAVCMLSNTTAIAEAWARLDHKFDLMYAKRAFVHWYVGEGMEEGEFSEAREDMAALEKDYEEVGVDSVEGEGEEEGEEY

Take `COC(=O)[C@]1(C)CCC[C@]2(C)c3cc(Br)c4nc(-c5ccccc5)[nH]c4c3CCC12` (some centres unmarked) [Compound 6a, Methyl 2′-phenyl-12-bromo-13,14-imidazolyl-deisopropyl-dehydroabietate]: the melting point (in general, the temperature, or range, at which the solid turns liquid) fell in the range of 123 to 125 °C. Moreover, the half-maximal inhibitory concentration (IC50) (commonly the midpoint of a concentration-inhibition curve) in data set [1] (Mus musculus, CT26, 48 h) worked out at 6.34 ± 0.83 µM. Moreover, the IC50 in data set [2] (Homo sapiens, SMMC-7721, 48 h) is 12.5 ± 0.45 µM. The IC50 in data set [3] is 16.2 ± 1.73 µM. Moreover, in data set [4], the half-maximal inhibitory concentration (IC50) is more than 50 µM. Moreover, the IC50 in data set [5] came to 41.7 ± 2.06 µM.

For `COC(=O)[C@]1(C)CCC[C@]2(C)c3cc(Br)c4nc(-c5ccc(F)cc5)[nH]c4c3CCC12` (some centres unmarked) [Compound 6c, Methyl 2′-(4-fluorophenyl)-12-bromo-13,14-imidazolyl-deisopropyl-dehydroabietate], the melting point was in the range of 149 to 151 °C. Moreover, the IC50 in data set [1] was determined as 2.82 ± 0.97 µM. Besides, the IC50 in data set [1] (Mus musculus, CT26, 48 h) is less than 5 µM. In addition, the IC50 in data set [3] turned out to be 8.01 ± 0.76 µM. The compound further yielded a concentration for half-maximal inhibition (IC50) in data set [4] of more than 50 µM. Further, the concentration for half-maximal inhibition (IC50) in data set [5] turned out to be 18.2 ± 1.2 µM.

The compound `COC(=O)[C@]1(C)CCC[C@]2(C)c3cc(Br)c4nc(-c5cccc(F)c5)[nH]c4c3CCC12` (some centres unmarked) [Compound 6d, Methyl 2′-(3-fluorophenyl)-12-bromo-13,14-imidazolyl-deisopropyl-dehydroabietate] had a melting point of 142 to 144 °C. Further, the IC50 in data set [1] stood at 3.39 ± 0.33 µM. In addition, in data set [1] (Mus musculus, CT26, 48 h), the IC50 was less than 5 µM. Moreover, the concentration for half-maximal inhibition (IC50) in data set [2] (Homo sapiens, SMMC-7721, 48 h) is less than 5 µM. In addition, the concentration for half-maximal inhibition (IC50) in data set [2] was 5.27 ± 0.27 µM. The concentration for half-maximal inhibition (IC50) in data set [3] worked out at 17.7 ± 3.02 µM. The 50% inhibitory concentration (IC50) in data set [4] is more than 50 µM. The IC50 in data set [5] is 12 ± 1.31 µM.

`COC(=O)[C@]1(C)CCC[C@]2(C)c3cc(-c4cc(OC)c(OC)c(OC)c4)c4nc(-c5ccccc5)[nH]c4c3CCC12` (some centres unmarked) [Compound 7a, Methyl 2′-phenyl-12-(3,4,5-trimethoxyphenyl)-13,14-imidazolyl-deisopropyl-dehydroabietate]: the melting point was 153 to 155 °C. Besides, the IC50 in data set [1] (Mus musculus, CT26, 48 h) amounted to 8.25 ± 0.5 µM. Further, the half-inhibitory concentration (IC50) in data set [2] (Homo sapiens, SMMC-7721, 48 h) came out at 9.38 ± 1.02 µM. The IC50 in data set [3] is 13.1 ± 1.7 µM. In data set [4], this compound showed an IC50 of more than 50 µM. In addition, in data set [5], the half-inhibitory concentration (IC50) was more than 50 µM.

Compound `COC(=O)[C@]1(C)CCC[C@]2(C)c3cc(-c4cc(OC)c(OC)c(OC)c4)c4nc(-c5ccc(F)cc5)[nH]c4c3CCC12` (some centres unmarked) [Compound 7c, Methyl 2′-(4-fluorophenyl)-12-(3,4,5-trimethoxyphenyl)-13,14-imidazolyl-deisopropyl-dehydroabietate] returned a melting point of 139 to 141 °C. Moreover, the half-maximal inhibitory concentration (IC50) in data set [1] (Mus musculus, CT26, 48 h) is 8.95 ± 0.17 µM. Further, the IC50 in data set [2] (Homo sapiens, SMMC-7721, 48 h) is less than 5 µM. Also, the IC50 in data set [2] was found to be 3.29 ± 0.13 µM. Moreover, the IC50 in data set [3] amounted to 7.63 ± 1.03 µM. Also, the half-inhibitory concentration (IC50) in data set [4] amounted to 36.1 ± 2.32 µM. The 50% inhibitory concentration (IC50) in data set [5] came to 0.69 ± 0.21 µM.

On to `COC(=O)[C@]1(C)CCC[C@]2(C)c3cc(-c4cc(OC)c(OC)c(OC)c4)c4nc(-c5cccc(F)c5)[nH]c4c3CCC12` (some centres unmarked) [Compound 7d, Methyl 2′-(3-fluorophenyl)-12-(3,4,5-trimethoxyphenyl)-13,14-imidazolyl-deisopropyl-dehydroabietate], for which the melting point is 156 to 158 °C. For the same compound, the IC50 in data set [1] came to 2.7 ± 0.12 µM. Moreover, the IC50 in data set [1] (Mus musculus, CT26, 48 h) was less than 5 µM. In data set [2] (Homo sapiens, SMMC-7721, 48 h), the IC50 was more than 50 µM. In addition, the 50% inhibitory concentration (IC50) in data set [3] was found to be 12.9 ± 1.26 µM. Besides, the IC50 in data set [4] is more than 50 µM. Further, the IC50 in data set [5] was 6.42 ± 0.04 µM.

Consider `COC(=O)[C@]1(C)CCC[C@]2(C)c3cc(-c4cc(OC)c(OC)c(OC)c4)c4nc(-c5ccc(Cl)cc5)[nH]c4c3CCC12` (some centres unmarked) [Compound 7f, Methyl 2′-(4-chlorophenyl)-12-(3,4,5-trimethoxyphenyl)-13,14-imidazolyl-deisopropyl-dehydroabietate], for which the melting point was 168 to 170 °C. In addition, the IC50 in data set [1] came out at 3.44 ± 0.75 µM. In addition, the IC50 in data set [1] (Mus musculus, CT26, 48 h) is less than 5 µM. The IC50 in data set [2] (Homo sapiens, SMMC-7721, 48 h) turned out to be 11 ± 2.68 µM. For the same compound, the IC50 in data set [3] is 17.2 ± 2.32 µM. The compound also had an IC50 in data set [4] of more than 50 µM. Besides, the 50% inhibitory concentration (IC50) in data set [5] came to 10.1 ± 1.38 µM.

In turn, `COC(=O)[C@]1(C)CCC[C@]2(C)c3cc(-c4cc(OC)c(OC)c(OC)c4)c4nc(-c5ccc(Br)cc5)[nH]c4c3CCC12` (some centres unmarked) [Compound 7h, Methyl 2′-(4-bromophenyl)-12-(3,4,5-trimethoxyphenyl)-13,14-imidazolyl-deisopropyl-dehydroabietate] gave a melting point of 150 to 152 °C. For the same compound, the half-maximal inhibitory concentration (IC50) in data set [1] is 2.76 ± 0.26 µM. The half-inhibitory concentration (IC50) in data set [1] (Mus musculus, CT26, 48 h) is less than 5 µM. Further, the 50% inhibitory concentration (IC50) in data set [2] (Homo sapiens, SMMC-7721, 48 h) was more than 50 µM. The half-inhibitory concentration (IC50) in data set [3] worked out at 29.9 ± 3.07 µM. Further, the half-inhibitory concentration (IC50) in data set [4] is more than 50 µM. The IC50 in data set [5] turned out to be 8.84 ± 1.08 µM.

`COC(=O)[C@]1(C)CCC[C@]2(C)c3cc(-c4cc(OC)c(OC)c(OC)c4)c4nc(-c5c[nH]c6ccccc56)[nH]c4c3CCC12` (some centres unmarked) [Compound 7k, Methyl 2′-(1H-indol-3-yl)-12-(3,4,5-trimethoxyphenyl)-13,14-imidazolyl-deisopropyl-dehydroabietate] returned a melting point of 199 to 201 °C. Besides, in data set [3], the 50% inhibitory concentration (IC50) was 5.86 ± 0.63 µM. This compound also gave an IC50 in data set [4] of 11.8 ± 2.12 µM. The half-inhibitory concentration (IC50) in data set [5] came to 0.21 ± 0.02 µM.

As for `CC(=O)O[C@H]1C(=O)[C@@]2(C)[C@H]([C@H](OC(=O)c3ccccc3)[C@]3(O)C[C@H](OC(=O)[C@H](O)[C@@H](NC(=O)c4ccccc4)c4ccccc4)C(C)=C1C3(C)C)[C@]1(OC(C)=O)CO[C@@H]1C[C@@H]2O` [taxol, reference compound], the “effect on tubulin polymerization speed and final absorbance (OD340)” value in data set [6] is “obviously increased the speed of tubulin polymerization and the final absorbance”.
